Assay results from patent US11970493B2, “Autotaxin inhibitor compounds” (ILDONG PHARMACEUTICAL CO., LTD., priority 2020, dated 2024).
Counter-ions that a name gives are not always drawn.

Biological target: hATX/ENPP2 (Homo sapiens, UniProt Q13822)
Assay: hATX/ENPP2 biochemical assay using 16:0-LPC as substrate (Amplex Red/choline oxidase/HRP fluorescence)
Conditions: hENPP2 2.5 nM, LPC (16:0) substrate
Protocol: The enzyme is diluted in 50 mM Tris-HCl pH 8.0, 140 mM NaCl, 5 mM CaCl2, 0.01% Triton X-100 in a total volume of 5 μL. The aqueous solution of enzyme is added to the wells and incubated with different concentrations of the compounds at room temperature for 15 min. The reaction is started by the addition of 5 μL of 80 μM LPC (16:0) and 10 μL of the detection mixture containing 200 μM Amplex Red, 10 U/mL choline oxidase and 4 U/mL HRP. Fluorescence at 590 nm was measured kinetically with excitation at 530 nm. The slope of the curve (from 60 to 70 min of the reaction time) was used to calculate the compounds' IC50 values.

IC50	SMILES
> 200 nM	CCc1nc2ccc(-c3cnc(NCC4CN(C(=O)C5CNC5)C4)nc3)cn2c1N(C)c1nc(-c2ccc(F)cc2)c(C#N)s1 [Compound 40, 2-((6-(2-(((1-(azetidine-3-carbonyl)azetidin-3-yl)methyl)amino)pyrimidin-5-yl)-2-ethylimidazo[1,2-a]pyridin-3-yl)(methyl)amino)-4-(4-fluorophenyl)thiazole-5-carbonitrile]
20 to 200 nM	CCc1nc2ccc(-c3cnc(NCC4CN(C(=O)C5(O)CC5)C4)nc3)cn2c1N(C)c1nc(-c2ccc(F)cc2)c(C#N)s1 [Compound 41, 2-((2-ethyl-6-(2-(((1-(1-hydroxycyclopropane-1-carbonyl)azetidin-3-yl)methyl)amino)pyrimidin-5-yl)imidazo[1,2-a]pyridin-3-yl)(methyl)amino)-4-(4-fluorophenyl)thiazole-5-carbonitrile]
≤ 20 nM	CCc1nc2ccc(-c3cnc(N4CCN(CC(=O)N5CC[C@@H](O)C5)CC4)nc3)cn2c1N(C)c1nc(-c2ccc(F)cc2)c(C#N)s1 [Compound 45, (R)-2-((2-ethyl-6-(2-(4-(2-(3-hydroxypyrrolidin-1-yl)-2-oxoethyl)piperazin-1-yl)pyrimidin-5-yl)imidazo[1,2-a]pyridin-3-yl)(methyl)amino)-4-(4-fluorophenyl)thiazole-5-carbonitrile]
≤ 20 nM	CCc1nc2ccc(-c3cnc(N4CCN(CC(=O)N5CC[C@H](O)C5)CC4)nc3)cn2c1N(C)c1nc(-c2ccc(F)cc2)c(C#N)s1 [Compound 46, (S)-2-((2-ethyl-6-(2-(4-(2-(3-hydroxypyrrolidin-1-yl)-2-oxoethyl)piperazin-1-yl)pyrimidin-5-yl)imidazo[1,2-a]pyridin-3-yl)(methyl)amino)-4-(4-fluorophenyl)thiazole-5-carbonitrile]
20 to 200 nM	CCc1nc2ccc(-c3cnc(C(=O)N4CC[C@H](O)C4)nc3)cn2c1N(C)c1nc(-c2ccc(F)cc2)c(C#N)s1 [Compound 48, (S)-2-((2-ethyl-6-(2-(3-hydroxypyrrolidine-1-carbonyl)pyrimidin-5-yl)imidazo[1,2-a]pyridin-3-yl)(methyl)amino)-4-(4-fluorophenyl) thiazole-5-carbonitrile]
20 to 200 nM	CCc1nc2ccc(-c3cnc(C(=O)N4CC[C@@H](O)C4)nc3)cn2c1N(C)c1nc(-c2ccc(F)cc2)c(C#N)s1 [Compound 49, (R)-2-((2-ethyl-6-(2-(3-hydroxypyrrolidine-1-carbonyl)pyrimidin-5-yl)imidazo[1,2-a]pyridin-3-yl)(methyl)amino)-4-(4-fluorophenyl) thiazole-5-carbonitrile]
20 to 200 nM	CCc1nc2ccc(-c3cnc(C(=O)NC4CNC4)nc3)cn2c1N(C)c1nc(-c2ccc(F)cc2)c(C#N)s1 [Compound 50, N-(azetidin-3-yl)-5-(3-((5-cyano-4-(4-fluorophenyl)thiazol-2-yl) (methyl)amino)-2-ethylimidazo[1,2-a]pyridin-6-yl)pyrimidine-2-carboxamide]
20 to 200 nM	CCc1nc2ccc(-c3cnc(C(=O)NC4CCNCC4)nc3)cn2c1N(C)c1nc(-c2ccc(F)cc2)c(C#N)s1 [Compound 51, 5-(3-((5-cyano-4-(4-fluorophenyl)thiazol-2-yl) (methyl)amino)-2-ethylimidazo[1,2-a]pyridin-6-yl)-N-(piperidin-4-yl)pyrimidine-2-carboxamide]
20 to 200 nM	CCc1nc2ccc(-c3cnc(CC(=O)N4CC(O)C4)nc3)cn2c1N(C)c1nc(-c2ccc(F)cc2)c(C#N)s1 [Compound 52, 2-((2-ethyl-6-(2-(2-(3-hydroxyazetidin-1-yl)-2-oxoethyl)pyrimidin-5-yl)imidazo[1,2-a]pyridin-3-yl)(methyl)amino)-4-(4-fluorophenyl)thiazole-5-carbonitrile]
20 to 200 nM	CCc1nc2ccc(-c3cnc(CC(=O)N4CC(NC5CNC5)C4)nc3)cn2c1N(C)c1nc(-c2ccc(F)cc2)c(C#N)s1 [Compound 53, 2-((6-(2-(2-(3-(azetidin-3-ylamino)azetidin-1-yl)-2-oxoethyl)pyrimidin-5-yl)-2-ethylimidazo[1,2-a]pyridin-3-yl)(methyl)amino)-4-(4-fluorophenyl)thiazole-5-carbonitrile]
20 to 200 nM	CCc1nc2ccc(-c3cnc(CC(=O)N4CC(NC)C4)nc3)cn2c1N(C)c1nc(-c2ccc(F)cc2)c(C#N)s1 [Compound 54, 2-((2-ethyl-6-(2-(2-(3-(methylamino)azetidin-1-yl)-2-oxoethyl)pyrimidin-5-yl)imidazo[1,2-a]pyridin-3-yl)(methyl)amino)-4-(4-fluorophenyl) thiazole-5-carbonitrile]
20 to 200 nM	CCc1nc2ccc(-c3cnc(CC(=O)N4CC[C@H](O)C4)nc3)cn2c1N(C)c1nc(-c2ccc(F)cc2)c(C#N)s1 [Compound 55, (S)-2-((2-ethyl-6-(2-(2-(3-hydroxypyrrolidin-1-yl)-2-oxoethyl)pyrimidin-5-yl)imidazo[1,2-a]pyridin-3-yl)(methyl)amino)-4-(4-fluorophenyl)thiazole-5-carbonitrile]
20 to 200 nM	CCc1nc2ccc(-c3cnc(CC(=O)N4CC[C@@H](O)C4)nc3)cn2c1N(C)c1nc(-c2ccc(F)cc2)c(C#N)s1 [Compound 56, (R)-2-((2-ethyl-6-(2-(2-(3-hydroxypyrrolidin-1-yl)-2-oxoethyl)pyrimidin-5-yl)imidazo[1,2-a]pyridin-3-yl)(methyl)amino)-4-(4-fluorophenyl)thiazole-5-carbonitrile]
20 to 200 nM	CCc1nc2ccc(-c3cnc(CC(=O)N4CCC(O)CC4)nc3)cn2c1N(C)c1nc(-c2ccc(F)cc2)c(C#N)s1 [Compound 57, 2-((2-ethyl-6-(2-(2-(4-hydroxypiperidin-1-yl)-2-oxoethyl)pyrimidin-5-yl)imidazo[1,2-a]pyridin-3-yl)(methyl)amino)-4-(4-fluorophenyl) thiazole-5-carbonitrile]
20 to 200 nM	CCc1nc2ccc(-c3cnc(CC(=O)N4CCNCC4)nc3)cn2c1N(C)c1nc(-c2ccc(F)cc2)c(C#N)s1 [Compound 58, 2-((2-ethyl-6-(2-(2-oxo-2-(piperazin-1-yl)ethyl)pyrimidin-5-yl)imidazo[1,2-a]pyridin-3-yl)(methyl)amino)-4-(4-fluorophenyl)thiazole-5-carbonitrile]
20 to 200 nM	CCc1nc2ccc(-c3cnc(CC(=O)N4CCOCC4)nc3)cn2c1N(C)c1nc(-c2ccc(F)cc2)c(C#N)s1 [Compound 59, 2-((2-ethyl-6-(2-(2-morpholino-2-oxoethyl)pyrimidin-5-yl)imidazo[1,2-a]pyridin-3-yl)(methyl)amino)-4-(4-fluorophenyl)thiazole-5-carbonitrile]
20 to 200 nM	CCc1nc2ccc(-c3cnc(CC(N)=O)nc3)cn2c1N(C)c1nc(-c2ccc(F)cc2)c(C#N)s1 [Compound 60, 2-(5-(3-((5-cyano-4-(4-fluorophenyl)thiazol-2-yl)(methyl)amino)-2-ethylimidazo[1,2-a]pyridin-6-yl)pyrimidin-2-yl)acetamide]
20 to 200 nM	CCc1nc2ccc(-c3cnc(CC(=O)NC)nc3)cn2c1N(C)c1nc(-c2ccc(F)cc2)c(C#N)s1 [Compound 61, 2-(5-(3-((5-cyano-4-(4-fluorophenyl)thiazol-2-yl)(methyl)amino)-2-ethylimidazo[1,2-a]pyridin-6-yl)pyrimidin-2-yl)-N-methyl acetamide]
20 to 200 nM	CCc1nc2ccc(-c3cnc(CC(=O)NC4CC4)nc3)cn2c1N(C)c1nc(-c2ccc(F)cc2)c(C#N)s1 [Compound 62, 2-(5-(3-((5-cyano-4-(4-fluorophenyl)thiazol-2-yl)(methyl)amino)-2-ethylimidazo[1,2-a]pyridin-6-yl)pyrimidin-2-yl)-N-cyclopropyl acetamide]
> 200 nM	CCc1nc2ccc(-c3cnc(CC(=O)NC4CNC4)nc3)cn2c1N(C)c1nc(-c2ccc(F)cc2)c(C#N)s1 [Compound 63, N-(azetidin-3-yl)-2-(5-(3-((5-cyano-4-(4-fluorophenyl)thiazol-2-yl)(methyl)amino)-2-ethylimidazo[1,2-a]pyridin-6-yl)pyrimidin-2-yl)acetamide]
20 to 200 nM	CCc1nc2ccc(-c3cnc(CC(=O)NC4(C#N)CC4)nc3)cn2c1N(C)c1nc(-c2ccc(F)cc2)c(C#N)s1 [Compound 64, 2-(5-(3-((5-cyano-4-(4-fluorophenyl)thiazol-2-yl)(methyl)amino)-2-ethylimidazo[1,2-a]pyridin-6-yl)pyrimidin-2-yl)-N-(1-cyanocyclopropyl)acetamide]
20 to 200 nM	CCc1nc2ccc(-c3cnc(CC(=O)NC4CCNCC4)nc3)cn2c1N(C)c1nc(-c2ccc(F)cc2)c(C#N)s1 [Compound 65, 2-(5-(3-((5-cyano-4-(4-fluorophenyl)thiazol-2-yl)(methyl)amino)-2-ethylimidazo [1,2-a]pyridin-6-yl)pyrimidin-2-yl)-N-(piperidin-4-yl)acetamide]
20 to 200 nM	CCc1nc2ccc(-c3cnc(N4CCN(C(=O)NC5CCNCC5)CC4)nc3)cn2c1N(C)c1nc(-c2ccc(F)cc2)c(C#N)s1 [Compound 67, 4-(5-(3-((5-cyano-4-(4-fluorophenyl)thiazol-2-yl)(methyl)amino)-2-ethylimidazo[1,2-a]pyridin-6-yl)pyrimidin-2-yl)-N-(piperidin-4-yl)piperazine-1-carboxamide]
≤ 20 nM	CCc1nc2ccc(-c3cnc(N4CCC(NC5CNC5)CC4)nc3)cn2c1N(C)c1nc(-c2ccc(F)cc2)c(C#N)s1 [Compound 68 formate, 2-((6-(2-(4-(azetidin-3-ylamino)piperidin-1-yl)pyrimidin-5-yl)-2-ethylimidazo[1,2-a]pyridin-3-yl)(methyl)amino)-4-(4-fluorophenyl)thiazole-5-carbonitrile formate]
